Active and inactive are the calls of the source. No cut-off for these calls is given here.
What was measured:
[1] = tested on: K562; assay: cells; assay type: functional, cell-based; settings: Homo sapiens, K562, 72 h
[2] = biological target: Histone deacetylase; assay type: protein assay, Homo sapiens
[3] = biological target: Inosine-5'-monophosphate dehydrogenase 1 (Homo sapiens, UniProt P20839); assay: Inhibition of human IMPDH 1
[4] = biological target: Inosine-5'-monophosphate dehydrogenase 2 (Homo sapiens, UniProt P12268); assay: Inhibition of human IMPDH 2
[5] = tested on: K562; assay: Differentiation of K562 cells at 0.005 uM after 5 days by […]; assay type: functional, Homo sapiens
[6] = tested on: K562; assay: Differentiation of K562 cells at 0.25 uM after 5 days by […]; assay type: functional, Homo sapiens
[7] = tested on: K562; assay: Differentiation of K562 cells at 0.50 uM after 5 days by […]; assay type: functional, Homo sapiens

IC50 [1] [nM] | IC50 [2] [nM] | Ki [3] [nM] | Ki [4] [nM] | Activity [3] | Activity [4] | Structure (SMILES) | Activity [5] [%] | Activity [6] [%] | Activity [7] [%]
10800 | 10400 | 400 | 1100 |  |  | COc1c(C)c2c(c(O)c1C/C=C(\C)CCCC(=O)NO)C(=O)OC2 |  |  | 
60000 | > 100000 | 2830 | 650 |  |  | COc1c(C)c2c(c(O)c1C/C=C(\C)CCC(=O)Nc1ccccc1N)C(=O)OC2 |  |  | 
44700 | 20100 | 2070 | 540 |  |  | COc1c(C)c2c(c(O)c1CCC(C)CCC(=O)NO)C(=O)OC2 (stereo not given) |  |  | 
290 | 60 | 5000 | 1700 |  |  | COc1cc(NC(=O)CCCCCCC(=O)NO)ccc1-c1cnco1 | 87.8 |  | 
 |  |  |  |  |  | COc1c(C)c2c(c(O)c1C/C=C(\C)CCC(=O)O)C(=O)OC2 [MYCOPHENOLIC ACID] |  | 46.4 | 
 |  |  |  | inactive | inactive | O=C(CCCCCCC(=O)Nc1ccccc1)NO [VORINOSTAT] |  |  | 47.4
42300 | 14000 |  |  | inactive | inactive | COc1c(C)c2c(c(OC)c1C/C=C(\C)CCC(=O)NO)C(=O)OC2 |  |  | 
4800 | 5000 | 70 | 30 |  |  | COc1c(C)c2c(c(O)c1C/C=C(\C)CCC(=O)NO)C(=O)OC2 [MYCOPHENOLIC HYDROXAMIC ACID] |  | 75 | 

Source: ChEMBL document CHEMBL1138342, “Dual inhibitors of inosine monophosphate dehydrogenase and histone deacetylases for cancer treatment” (J Med Chem, 2007)
